Measured values published in patent US12663426B2, “Method and composition for measurement of nitric oxide” (The University of Chicago, priority 2019, dated 2026).

Experiments:
Format in all cases: cell-based
[1] = tested on: T-47D cells; assay: Golgi fragmentation (Giantin/GM130 immunofluorescence)
Protocol: (§1) Immunofluorescence staining. Cells were cultured on a glass bottom 3.5 cm imaging dish to reach 60% confluency. […] Treated cells were then washed three times with 1× PBS (pH 7.4) and fixed using, 4% paraformaldehyde at room temperature (RT, 15 min). Subsequently, cells were permeabilized using 0.25% triton X-100 followed by blocking using 3% BSA in 1× PBS. Cells were then incubated with indicated primary antibodies—mouse monoclonal anti-eNOS antibody (SantaCruz Cat #sc-376751), Polyclonal Anti-S-nitrosocysteine antibody (Abeam Cat #ab94930 or Abeam Cat #ab50185), Rabbit polyclonal Anti-Giantin antibody (Abeam Cat #ab24586) or Mouse monoclonal Anti-GM130 antibody (BD Biosciences Cat #610822) in blocking buffer (3% BSA in 1× 4 PBS) for 1 hour at RT. Cells were then washed for 5 min with 1× PBS (3×). Respective secondary antibodies conjugated with either Alexafluor 488 or Alexafluor 647 were added to the cells and incubated for 1 hr at RT. Cells were washed again to remove excess secondary antibody using 1× PBS for 5 min (3×). Hoechst 33342 (5 μM) was added 10 min prior to imaging to stain nuclear DNA. Cells were then imaged on a Leica SP8 laser scanning confocal microscope using excitation wavelengths 405 nm (Hoechst), 488 nm (AlexaFluor 488) and 647 nm (AlexaFluor 647). Images were processed using Fiji and maximum z-projection of 2-3 z-planes are used in representative images.
Golgi fragmentation was quantified with immunofluorescence images of Golgi structural protein Giantin. Merge images of Hoechst and Giantin allowed identification of cell numbers and enumeration of Golgi fragments per cell (≤3 Golgi fragments per cell was considered intact Golgi) (Lee, J. E. et al. Dependence of Golgi apparatus integrity on nitric oxide in vascular cells: implications in pulmonary arterial hypertension. Am. J. Physiol. Heart Circ. Physiol. 300, H1141-58 (2011)). […]
Small molecule inhibitors were then screened to identify the molecular pathway by which NOS3 inhibition induces Golgi fragmentation. This is based on the rationale that inhibiting a protein on this pathway should also block methylene blue-induced Golgi fragmentation. […] A range of small molecule inhibitors against kinases that have previously ascribed roles in Golgi fragmentation were then used. DNA-PK with NU7441 was ruled out (Farber-Katz, S. E. et al. DNA damage triggers Golgi dispersal via DNA-PK and GOLPH3. Cell 156, 413-427 (2014)). Compounds containing an indirubin core have broad specificity for Cyclin dependent kinases (CDKs) and Src kinases. […] CDK1, CDK2 and CDK5 were ruled out, using (R)-Roscovitine (Rosco).

[2] = tested on: S-nitrosylation at the Golgi; assay: Anti-S-nitrosocysteine immunostaining of T-47D cells
Protocol: as §1
In order to address the significance of the […] population of NOS3 at the TGN, T-47D cells were immunostained using an antibody specific to S-nitrosocysteine.
Similar observations were made in MCF-7 cells upon NO depletion (FIG. 23). These studies reveal that the Golgi is a cellular hot-spot for 5-nitrosylation of proteins by NOS3, where it is essential for the maintenance of Golgi architecture in breast cancer cells. […] In addition to Golgi fragmentation, NO scavenging also hampered cell growth by inducing cell sensescence (FIG. 24).

[3] = biological target: T1, NOS3 (Homo sapiens, UniProt P29474); assay: Steady state NOS3 activity imaging at plasma membrane and TGN with NOckout probes; details: T-47D cells
T1 construct: endogenous, basal NOS3 activity was estimated at each of these sub-cellular locations in T-47D cells; endogenous in cells; host or cells: T-47D cells
Protocol: Image acquisition. T-47D cells were maintained as mentioned above in the cell culture section. Cells were washed twice with Hank's balanced salt solution (HBSS) before incubating them with 500 nM NOckout^TGN for 30 min or 500 nM NOckout^PM for 10 min at 37° C. followed by 3 washes with HBSS solution to remove any unloaded sensors. For steady state imaging (FIG. 1), cells were treated with indicated agonists or antagonists for 1 hr in complete RPMI-1640 medium. Care was taken not to exceed the final concentration of DMSO>1% at any time of the experiment. Additionally, 1% DMSO was used as a negative control in untreated (Basal) cells. […] The cells are then washed and imaged (FIG. 1f).
For simultaneous imaging cells were treated with 500 nM NOckout^TGN for 30 min where last 10 min cells were co-incubated with 500 nM NOckout^PM. In order to achieve lowest signal (PTIO, FIG. 1e-f) or to achieve bleaching profile (PTIO, FIG. 3e) cells were pre-treated with 500 μM PTIO for 15 minutes. Images were captured on a Laser scanning confocal Leica SP8 microscope using 63×, 1.4UV NA objective. Desired excitation and emission wavelengths was achieved using white light laser along with notch filters and acousto-optical tunable filters. A488, DAR and A647 were imaged using the following settings—Alexa488 (λex=488 nm, λem=500 nm to 540 nm), DAR (λex=554 nm, λem=565 nm to 610 nm) and Alexa647 (λex=647 nm, λem=665 nm to 710 nm).
Image analysis was performed using Fiji (Schindelin, J. et al. Fiji: an open-source platform for biological-image analysis. Nat Methods 9, 676-682 (2012)). Auto-fluorescence was subtracted from images for ratiometric analysis. For representation, images were further processed by smooth and despeckle functions. In order to present G/B or G/R images, a mask for each image was constructed using Otsu thresholding method, and mask-multiplied images were used for division. The ROI plugin in Fiji was used to select either TGN (Alexa647 channel) or PM (Alexa488 channel) and these ROIs were recalled in DAR channel to measure intensity in all three channels.
Next, endogenous, basal NOS3 activity was estimated at each of these sub-cellular locations in T-47D cells without explicitly activating NOS3. To do this, the ratiometric NOckout^PM response, i.e. the G/B ratio, was first measured under conditions where cells were depleted of NO using the NO scavenger 2-phenyl-4,4,5,5-tetramethylimidazoline-1-oxyl 3-oxide (PTIO, 300 μM) (Goldstein, S., Russo, A. & Samuni, A. Reactions of PTIO and carboxy-PTIO with *NO, *NO2, and O2−*. J Biol. Chem. 278, 50949-50955 (2003)). […] These two extreme cases provide the minimum and maximum G/B signals afforded by NOckout^PM in the cell (FIG. 1e-f). The G/B values under any subsequent condition are normalized to the maximum G/B signal. […]

Row | Compound | effect on methylene blue (MB)-induced Golgi fragmentation [1] | Golgi fragmentation by treatment alone [1] | other results
1 | CC[C@H](CO)Nc1nc(NCc2ccccc2)c2ncn(C(C)C)c2n1 [(R)-Roscovitine] | ruled out | – | –
2 | C[C@@H](N)[C@H]1CC[C@H](C(=O)Nc2ccncc2)CC1 [Y-27632] | not mediated by apoptosis | – | –
3 | O=C1Nc2ccccc2/C1=C1/Nc2ccccc2/C1=N\OCC(O)CO (centres unmarked) [indirubin-e804] | completely blocked | – | –
4 | CN(C)c1ccc2nc3ccc(=[N+](C)C)cc-3sc2c1 [Methylene Blue] | – | fragmented morphology | –
5 | C/C1=C/C(=O)O[C@@H]2C[C@@H](CC[C@H](C)/C=C\CC1)O[C@@](O)([C@@H]1CSC(=O)N1)C2 [Latrunculin B] | completely blocked | – | –
6 | O=C1Nc2ccccc2/C1=C1/Nc2ccccc2/C1=N\O [indirubin-3′-monoxime] | completely blocked | – | –
7 | COC(=O)[C@@H](N)CCCNC(=N)N[N+](=O)[O-] [L-NAME, L-N^G-Nitroarginine methyl ester] | – | underwent fragmentation | S-nitrosylation at the Golgi [2]: dramatically reduced; G/B and G/R values of NOckout probes (NOS3 activity) [3]: reflected those of PTIO-treated cells
8 | O=c1cc(N2CCOCC2)oc2c(-c3cccc4c3sc3ccccc34)cccc12 [NU7441] | ruled out | – | –
9 | CC1(C)CC(O)CC(C)(C)N1[O] [TEMPOL] | – | none of these treatments fragmented the Golgi | –
10 | C[C@]12CC[C@@H]3c4ccc(O)cc4CC[C@H]3[C@@H]1CC[C@@H]2O [E2, 17 β-Estradiol] | – | – | G/B and G/R values of NOckout probes (NOS3 activity) [3]: selectively activated NOS3 only at the plasma membrane
11 | CN(C)S(=O)(=O)c1ccc2c(c1)/C(=C/c1cc3c([nH]1)CCCC3)C(=O)N2 [SU6656] | – | – | reduction of MB-induced Golgi fragmentation [1]: ~50%
12 | Nc1ncnc2c1ncn2[C@@H]1O[C@H](COP(=O)(O)OP(=O)(O)OP(=O)(O)O)[C@@H](O)[C@H]1O [ATP] | – | – | G/B and G/R values of NOckout probes (NOS3 activity) [3]: significantly higher G/B and G/R ratios
13 | Hemoglobin | – | fragmented morphology | –
14 | CC1(C)N([O])C(c2ccccc2)=[N+]([O-])C1(C)C [PTIO, 2-phenyl-4,4,5,5-tetramethylimidazoline-1-oxyl 3-oxide] | – | fragmented morphology | S-nitrosylation at the Golgi [2]: greatly diminished
